Laboratory results as given in patent US3972872A, “6-[α-(ω-Guanidinoalkanoylamido)acylamido]penicillanic acids” (Pfizer Inc., priority 1975, dated 1976).
Values after ≈ are worked out from the molar mass of the structure shown. Like-named read-outs stand apart in the source and are kept apart here.

What was measured:
[1] = tested on: Serratia marcescens A001; assay: In vitro MIC, Serratia marcescens A001; assay type: cell-based; settings: unit assumed
Text: (§1) The in vitro spectra of a number of 6-[α-(ω-guanidinoalkanoylamido)acylamido]penicillanic acids of this invention against certain gram-negative bacteria are presented in Table I below. […] Th compounds of Table I have the formula

[2] = tested on: Proteus mirabilis C015; assay: In vitro MIC, Proteus mirabilis C015; assay type: cell-based; settings: unit assumed
Text: as §1

[3] = tested on: Proteus rettgeri B006; assay: In vitro MIC, Proteus rettgeri B006; assay type: cell-based; settings: unit assumed
Text: (§2) The in vitro activity of the herein-described compounds renders them useful for topical application in the form of ointments, creams and the like, or for sterilization purposes, e.g., sick room utensils.
as §1

[4] = tested on: E. coli 266; assay: In vitro MIC, E. coli 266, two-fold serial dilution; assay type: cell-based, Escherichia coli; settings: unit assumed
Text: as §1

[5] = tested on: Proteus vulgaris A059; assay: In vitro MIC, Proteus vulgaris A059; assay type: cell-based; settings: unit assumed
Text: as §1

[6] = tested on: Pseudo. aeruginosa 173; assay: In vitro MIC, Pseudo. aeruginosa 173; assay type: cell-based, Pseudomonas aeruginosa; settings: unit assumed
Text: as §1

[7] = tested on: Pseudo. aeruginosa 104; assay: In vitro MIC, Pseudo. aeruginosa 104; assay type: cell-based, Pseudomonas aeruginosa; settings: unit assumed
Text: as §1

[8] = tested on: Escherichia coli 266; assay: In vivo protection of mice versus Escherichia coli 266; settings: Escherichia coli, 266, sc, 96 h, read-out: % Protection
Text: (§3) Additionally, the compounds of this invention are active versus gram-positive and gram-negative bacteria in vivo via the parenteral route of administration in animals, including man. Their in vivo activity in animals, including man, by the oral route of administration is more limited as regards susceptible organisms. Nevertheless, oral in vivo activity against Escherichia coli and Staphylococcus aureus is a common property of many compounds of this invention. Table II below presents the comparative in vivo spectra of several compounds within the scope of this invention against D-α-aminobenzylpenicillin (Ampicillin).
(§4) The acute systemic infections in mice were produced by the intraperitoneal inoculation of standardized cultures suspended in 5% hog gastric mucin. Treatment with the drugs was initiated 0.5 hours after inoculation of the infecting organism. A second dose was administered 4 hours later. The PD50 values were calculated after a hold period of 4 days.

[9] = tested on: Proteus mirabilis C020; assay: In vitro MIC, Proteus mirabilis C020; assay type: cell-based; settings: unit assumed
Text: as §2, §1

[10] = tested on: Pseudo. aeruginosa 490; assay: In vitro MIC, Pseudo. aeruginosa 490; assay type: cell-based, Pseudomonas aeruginosa; settings: unit assumed
Text: as §1

[11] = tested on: E. coli; assay: PD50 versus acute systemic E. coli infection in mice; assay type: in vivo; settings: Escherichia coli, 96 h, E. coli, mice
Text: as §3, §4

[12] = tested on: P. aeruginosa; assay: PD50 versus acute systemic P. aeruginosa infection in mice; assay type: in vivo; settings: mice; for ED50: Pseudomonas aeruginosa, 96 h, P. aeruginosa, read-out: PD50
Text: as §3, §4

[13] = tested on: S. aureus; assay: PD50 versus acute systemic S. aureus infection in mice; assay type: in vivo; settings: Staphylococcus aureus, 96 h, S. aureus, mice
Text: as §3, §4

[14] = 50 mg./kg., mice, subcutaneous route

| MIC [1] | MIC [2] | MIC [3] | MIC [4] | MIC [5] | MIC [6] | MIC [7] | MIC [9] | MIC [10] | SMILES | responders at 50 mg/kg [8, 14] | responders at 50 mg/kg [8] | ED50 ([11]; oral) | ED50 ([11]; sc, subcutaneous) | ED50 ([12]; oral) | ED50 ([12]; sc, subcutaneous) | activity against Pseudomonas aeruginosa (in words) ([12]; in vivo) | ED50 ([13]; oral) | ED50 ([13]; sc, subcutaneous) |
| --- | --- | --- | --- | --- | --- | --- | --- | --- | --- | --- | --- | --- | --- | --- | --- | --- | --- | --- |
| 3.12 µg/mL (≈ 6.11 µM) | 3.12 µg/mL (≈ 6.11 µM) | 25 µg/mL (≈ 49 µM) | 3.12 µg/mL (≈ 6.11 µM) | 6.25 µg/mL (≈ 12.2 µM) | 0.78 µg/mL (≈ 1.53 µM) | 0.78 µg/mL (≈ 1.53 µM) | 12.5 µg/mL (≈ 24.5 µM) | 0.78 µg/mL (≈ 1.53 µM) | CC1(C)S[C@@H]2[C@H](NC(=O)[C@H](NC(=O)c3ccc(NC(=N)N)cc3)c3ccccc3)C(=O)N2[C@H]1C(=O)O [NH--C(NH)NH2 [1st of 4], R=H] | 10% |  |  |  |  |  |  |  |  |
| 6.25 µg/mL (≈ 12.4 µM) | 3.12 µg/mL (≈ 6.21 µM) |  | 6.25 µg/mL (≈ 12.4 µM) | 6.25 µg/mL (≈ 12.4 µM) | 6.25 µg/mL (≈ 12.4 µM) | 12.5 µg/mL (≈ 24.9 µM) |  | 1.56 µg/mL (≈ 3.1 µM) | CC1(C)S[C@@H]2[C@H](NC(=O)[C@H](NC(=O)C3CCCN(C(=N)N)C3)c3ccccc3)C(=O)N2[C@H]1C(=O)O (stereo partly shown) [C(NH)NH2, R=H] | 80% |  |  |  |  |  |  |  |  |
| 25 µg/mL (≈ 47.7 µM) | 12.5 µg/mL (≈ 23.8 µM) |  | 6.25 µg/mL (≈ 11.9 µM) | 12.5 µg/mL (≈ 23.8 µM) | 3.12 µg/mL (≈ 5.95 µM) | 6.25 µg/mL (≈ 11.9 µM) |  | 1.56 µg/mL (≈ 2.97 µM) | CC1(C)S[C@@H]2[C@H](NC(=O)[C@H](NC(=O)Cc3ccc(NC(=N)N)cc3)c3ccccc3)C(=O)N2[C@H]1C(=O)O [NH--C(NH)NH2 [4th of 4], R=H] | 20% |  |  |  |  |  |  |  |  |
| 12.5 µg/mL (≈ 24.5 µM) | 6.25 µg/mL (≈ 12.2 µM) | 12.5 µg/mL (≈ 24.5 µM) | 3.12 µg/mL (≈ 6.11 µM) | 3.12 µg/mL (≈ 6.11 µM) | 1.56 µg/mL (≈ 3.06 µM) | 1.56 µg/mL (≈ 3.06 µM) | 25 µg/mL (≈ 49 µM) | 0.78 µg/mL (≈ 1.53 µM) | CC1(C)S[C@@H]2[C@H](NC(=O)[C@H](NC(=O)c3cccc(NC(=N)N)c3)c3ccccc3)C(=O)N2[C@H]1C(=O)O [NH--C(NH)NH2 [2nd of 4], R=H] | 60% |  |  |  |  |  |  |  |  |
| 12.5 µg/mL (≈ 24.2 µM) | 6.25 µg/mL (≈ 12.1 µM) | 50 µg/mL (≈ 96.8 µM) | 6.25 µg/mL (≈ 12.1 µM) | 50 µg/mL (≈ 96.8 µM) | 1.56 µg/mL (≈ 3.02 µM) | 3.12 µg/mL (≈ 6.04 µM) | 25 µg/mL (≈ 48.4 µM) | 6.25 µg/mL (≈ 12.1 µM) | CC1(C)S[C@@H]2[C@H](NC(=O)[C@H](NC(=O)C3CCC(NC(=N)N)CC3)c3ccccc3)C(=O)N2[C@H]1C(=O)O (stereo partly shown) [NH--C(NH)NH2 [3rd of 4], R=H] | 50% |  |  |  |  |  |  |  |  |

| SMILES | MIC [1] | MIC [2] | MIC [3] | MIC [4] | MIC [5] | MIC [6] | MIC [7] | MIC [9] | MIC [10] | responders at 50 mg/kg [8, 14] | responders at 50 mg/kg [8] | ED50 ([11]; oral) | ED50 ([11]; sc, subcutaneous) | ED50 ([12]; oral) | ED50 ([12]; sc, subcutaneous) | activity against Pseudomonas aeruginosa (in words) ([12]; in vivo) | ED50 ([13]; oral) | ED50 ([13]; sc, subcutaneous) |
| --- | --- | --- | --- | --- | --- | --- | --- | --- | --- | --- | --- | --- | --- | --- | --- | --- | --- | --- |
| CC1(C)S[C@@H]2[C@H](NC(=O)[C@H](NC(=O)CNC3=NCCN3)c3ccccc3)C(=O)N2[C@H]1C(=O)O [CH2 NH--.angle..vertline., R=H, 6-[D-2-Phenyl-2-(2-Imidazolinylaminoacetamido)Acetamido]Penicillanic Acid] | 25 µg/mL (≈ 52.7 µM) | 3.12 µg/mL (≈ 6.57 µM) | 100 µg/mL (≈ 211 µM) | 12.5 µg/mL (≈ 26.3 µM) | 3.12 µg/mL (≈ 6.57 µM) | 3.12 µg/mL (≈ 6.57 µM) | 6.25 µg/mL (≈ 13.2 µM) | 6.25 µg/mL (≈ 13.2 µM) | 3.12 µg/mL (≈ 6.57 µM) |  | 90% |  |  |  |  |  |  |  |
| CC1(C)S[C@@H]2[C@H](NC(=O)[C@H](N)c3ccccc3)C(=O)N2[C@H]1C(=O)O [D-α-aminobenzylpenicillin, reference compound] | 200 µg/mL (≈ 572 µM) | 1.5 µg/mL (≈ 4.29 µM) |  | 3.1 µg/mL (≈ 8.87 µM) | 6 µg/mL (≈ 17.2 µM) | 200 µg/mL (≈ 572 µM) | 200 µg/mL (≈ 572 µM) |  | 0.78 µg/mL (≈ 2.23 µM) | 100% |  | 25 ± 13 mg/kg | 27 ± 9 mg/kg | > 200 mg/kg | > 200 mg/kg | inactive | 2.5 ± 0.7 mg/kg | 0.67 ± 0.4 mg/kg |
| CNC(=N)NCC(=O)N[C@@H](C(=O)N[C@@H]1C(=O)N2[C@@H]1SC(C)(C)[C@@H]2C(=O)O)c1ccccc1 [CH2 --NH--C(NH)NHCH3, R=H] | 3.12 µg/mL (≈ 6.75 µM) | 1.56 µg/mL (≈ 3.37 µM) |  | 1.56 µg/mL (≈ 3.37 µM) | 3.12 µg/mL (≈ 6.75 µM) | 3.12 µg/mL (≈ 6.75 µM) | 1.56 µg/mL (≈ 3.37 µM) |  | 0.78 µg/mL (≈ 1.69 µM) |  | 100% |  |  |  |  |  |  |  |
